# Measured values as given in EP4653437A2 (Innovo Therapeutics Inc., priority 2023, dated 2024).
# What was measured:
# [1] = target: T1, human 15-PGDH (Homo sapiens, UniProt P15428); assay: Evaluation of 15-PGDH inhibitory activity (fluorescence enzyme assay, NAD+/PGE2); format: biochemical; conditions: human 15-PGDH enzyme, fluorescence Vmax
# T1 construct: purchased R&D System 5660-DH
# T1 sequence (P15428 1-266): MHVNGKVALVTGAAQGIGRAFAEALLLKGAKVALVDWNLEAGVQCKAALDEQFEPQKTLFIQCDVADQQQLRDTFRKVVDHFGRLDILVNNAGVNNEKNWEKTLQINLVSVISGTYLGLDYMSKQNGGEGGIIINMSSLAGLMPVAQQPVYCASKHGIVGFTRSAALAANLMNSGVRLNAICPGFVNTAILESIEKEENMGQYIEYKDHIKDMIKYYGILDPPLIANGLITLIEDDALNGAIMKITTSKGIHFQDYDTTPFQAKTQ
# Experimental: 15-PGDH inhibition activity of Example compounds was measured as follows. 6.7 ng of human 15-PGDH (R&D System# 5660-DH) enzyme (10 µL) was added to a black 96 well plate, 60 µL of buffer (50 mM Tris-HCl, pH 7.5, 0.01% Tween 20) was added, and 10 µL of 200 µM β-Nicotinamide adenine dinucleotide sodium salt (Sigma, Cat# N0632-5G) was added. 10 µL of (10x) compound solution in DMSO was added and reacted for 10 minutes at room temperature.
# [2] = tested on: A549 cells; assay: Measurement of PGE2-increasing activity in A549 cells (IL-1β stimulated, PGE2 quantified in supernatant); format: cell-based; conditions: Homo sapiens, 24 h; concentration of 1 µM of each compound; IL-1β treated A549 cells; read-out: Increased PGE2 production in A549 cells
# In short: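 A549 cells grown 24 h in F12K with 10% FBS, then switched to serum-free medium with or without IL-1β and compound (0.1% DMSO final). After 24 h at 37 °C, 5% CO2, supernatant PGE2 quantified by immunoassay.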
SMILES,IC50 [1],fold induction at 1 µM [2]
"O=C1NC(=O)/C(=C/c2cccc(-c3cccc4c(C(=O)N5CCCCC5)cnn34)c2)S1 [Example 119, (Z)-5-(3-(3-(piperidine-1-carbonyl)pyrazolo[1,5-a]pyridin-7-yl)benzylidene)thiazolidine-2,4-dione]",≤ 100 nM,> 1.5
"CC1CCCN(C(=O)c2cnn3c(-c4ccc5c(c4)C(=O)NC5)cccc23)C1 (centres unmarked) [Example 387, 6-(3-(3-methylpiperidine-1-carbonyl)pyrazolo[1,5-a]pyridin-7-yl)isoindolin-1-one]",≤ 100 nM,> 1.5
"Nc1cncc(-c2cccc3c(C(=O)N4CCCCC4)cnn23)c1 [Example 9, (7-(5-aminopyridin-3-yl)pyrazolo[1,5-a]pyridin-3-yl)(piperidin-1-yl)methanone]",≤ 100 nM,> 1.5
"Cc1nnc(-c2ccc(-c3cccc4c(C(=O)N5CCCCC5)cnn34)cn2)o1 [Example 364, [7-[6-(5-methyl-1,3,4-oxadiazol-2-yl)-3-pyridyl]pyrazolo[1,5-a]pyridin-3-yl]-(1-piperidyl)methanone]",≤ 100 nM,> 1.5
"CS(=O)(=O)Nc1ccc(-c2cccc3c(C(=O)N4CCCCC4)cnn23)cn1 [Example 112, N-(5-(3-(piperidine-1-carbonyl)pyrazolo[1,5-a]pyridin-7-yl)pyridin-2-yl)methanesulfonamide]",≤ 100 nM,> 1.5
"CN(C)CCNC(=O)c1ccc(-c2cccc3c(C(=O)N4CCCCC4)cnn23)cc1 [Example 63, N-(2-(dimethylamino)ethyl)-4-(3-(piperidine-1-carbonyl)pyrazolo[1,5-a]pyridin-7-yl)benzamide]",≤ 100 nM,> 1.5
"O=C(c1cnn2c(-c3ccnc(-c4cnn(Cc5ncon5)c4)c3)cccc12)N1CCCCC1 [Example 397, (7-(2-(1-((1,2,4-oxadiazol-3-yl)methyl)-1H-pyrazol-4-yl)pyridin-4-yl)pyrazolo[1,5-a]pyridin-3-yl)(piperidin-1-yl)methanone]",≤ 100 nM,> 1.5
"N#CCCNC(=O)c1ccc(-c2cccc3c(C(=O)N4CCCCC4)cnn23)cn1 [Example 85, N-(2-cyanoethyl)-5-(3-(piperidine-1-carbonyl)pyrazolo[1,5-a]pyridin-7-yl)picolinamide]",≤ 100 nM,> 1.5
"O=C(c1cncc(-c2cccc3c(C(=O)N4CCCCC4)cnn23)c1)N1CC2(CC(O)C2)C1 [Example 225, (6-hydroxy-2-azaspiro[3.3]heptan-2-yl)-[5-[3-(piperidine-1-carbonyl)pyrazolo[1,5-a]pyridin-7-yl]-3-pyridyl]methanone]",≤ 100 nM,> 1.5
"CNC(=O)c1ncc(-c2cccc3c(C(=O)N4CCCCC4)cnn23)cc1Cl [Example 262, 3-chloro-N-methyl-5-[3-(piperidine-1-carbonyl)pyrazolo[1,5-a]pyridin-7-yl]pyridine-2-carboxamide]",≤ 100 nM,> 1.5
"CN1CCN(C(=O)c2cncc(-c3cccc4c(C(=O)N5CCCCC5)cnn34)c2)CC1 [Example 49, (4-methylpiperazin-1-yl)(5-(3-(piperidine-1-carbonyl)pyrazolo[1,5-a]pyridin-7-yl)pyridin-3-yl)methanone]",≤ 100 nM,> 1.5
"N#CCCNC(=O)c1cncc(-c2cccc3c(C(=O)N4CCCCC4)cnn23)c1 [Example 51, N-(2-cyanoethyl)-5-(3-(piperidine-1-carbonyl)pyrazolo[1,5-a]pyridin-7-yl)nicotinamide]",≤ 100 nM,> 1.5
"CC1CCCN(C(=O)c2cnn3c(-c4ccc(N5CCOC5=O)nc4)cccc23)C1 (centres unmarked) [Example 353, 3-(5-(3-(3-methylpiperidine-1-carbonyl)pyrazolo[1,5-a]pyridin-7-yl)pyridin-2-yl)oxazolidin-2-one]",≤ 100 nM,> 1.5
"N#Cc1ncc(-c2cccc3c(C(=O)N4CCCCC4)cnn23)cc1F [Example 205, 3-fluoro-5-[3-(piperidine-1-carbonyl)pyrazolo[1,5-a]pyridin-7-yl]pyridine-2-carbonitrile]",≤ 100 nM,> 1.5
"Cc1noc(C)c1-c1cc(-c2cccc3c(C(=O)N4CCCCC4)cnn23)cc(N2CCOCC2)n1 [Example 371, (7-(2-(3,5-dimethylisoxazol-4-yl)-6-morpholinopyridin-4-yl)pyrazolo[1,5-a]pyridin-3-yl)(piperidin-1-yl)methanone]",≤ 100 nM,> 1.5
"O=C(c1cnn2c(-c3cc(F)nc(F)c3)cccc12)N1CCCCC1 [Example 273, (7-(2,6-difluoropyridin-4-yl)pyrazolo[1,5-a]pyridin-3-yl)(piperidin-1-yl)methanone]",≤ 100 nM,> 1.5

# Further lines, with some results ahead:
IC50 [1],SMILES,fold induction at 1 µM [2]
≤ 100 nM,"O=C(c1cnn2c(-c3cncc(-c4ncon4)c3)cccc12)N1CCCCC1 [Example 374, (7-(5-(1,2,4-oxadiazol-3-yl)pyridin-3-yl)pyrazolo[1,5-a]pyridin-3-yl)(piperidin-1-yl)methanone]",> 1.5
≤ 100 nM,"N#Cc1ccc(-c2cccc3c(C(=O)N4CCCCC4)cnn23)cc1F [Example 22, 2-fluoro-4-(3-(piperidine-1-carbonyl)pyrazolo[1,5-a]pyridin-7-yl)benzonitrile]",> 1.5
≤ 100 nM,"COCCNC(=O)c1cccc(-c2cccc3c(C(=O)N4CCCCC4)cnn23)c1 [Example 30, N-(2-methoxyethyl)-3-(3-(piperidine-1-carbonyl)pyrazolo[1,5-a]pyridin-7-yl)benzamide]",> 1.5
≤ 100 nM,"O=C(c1cnn2c(-c3ccc(-c4n[nH]c(=O)o4)nc3)cccc12)N1CCCCC1 [Example 360, 5-[5-[3-(piperidine-1-carbonyl)pyrazolo[1,5-a]pyridin-7-yl]-2-pyridyl]-3H-1,3,4-oxadiazol-2-one]",> 1.5
≤ 100 nM,"O=C(COc1ccc(Cl)cc1)Nc1ccc(-c2cccc3c(C(=O)N4CCCCC4)cnn23)cn1 [Example 410, 2-(4-chlorophenoxy)-N-[5-[3-(piperidine-1-carbonyl)pyrazolo[1,5-a]pyridin-7-yl]-2-pyridyl]acetamide]",> 1.5
≤ 100 nM,"O=C(Cc1ccccc1)Nc1cncc(-c2cccc3c(C(=O)N4CCCCC4)cnn23)c1 [Example 389, 2-phenyl-N-(5-(3-(piperidine-1-carbonyl)pyrazolo[1,5-a]pyridin-7-yl)pyridin-3-yl)acetamide]",> 1.5
≤ 100 nM,"O=C(c1cnn2c(-c3ccc(-c4ccsc4)cc3)cccc12)N1CCCCC1 [Example 347, 1-piperidyl-[7-[4-(3-thienyl)phenyl]pyrazolo[1,5-a]pyridin-3-yl]methanone]",< 1.5
≤ 100 nM,"O=C(c1cnn2c(-c3ccc(-c4ncon4)cc3)cccc12)N1CCCCC1 [Example 352, [7-[4-(1,2,4-oxadiazol-3-yl)phenyl]pyrazolo[1,5-a]pyridin-3-yl]-(1-piperidyl)methanone]",> 1.5
≤ 100 nM,"O=C(c1cnn2c(-c3ccnc(N4CC(F)C4)c3)cccc12)N1CCCCC1 [Example 257, (7-(2-(3-fluoroazetidin-1-yl)pyridin-4-yl)pyrazolo[1,5-a]pyridin-3-yl)(piperidin-1-yl)methanone]",< 1.5
≤ 100 nM,"O=C1NCc2ccc(-c3cccc4c(C(=O)N5CC6(CCC6)C5)cnn34)cc21 [Example 390, 6-(3-(2-azaspiro[3.3]heptane-2-carbonyl)pyrazolo[1,5-a]pyridin-7-yl)isoindolin-1-one]",> 1.5
≤ 100 nM,"O=C(c1cnn2c(-c3ccc(F)nc3)cccc12)N1CCCCC1 [Example 19, (7-(6-fluoropyridin-3-yl)pyrazolo[1,5-a]pyridin-3-yl)(piperidin-1-yl)methanone]",> 1.5
≤ 100 nM,"Cc1noc(C)c1-c1ncc(-c2cccc3c(C(=O)N4CCCCC4)cnn23)cn1 [Example 399, [7-[2-(3,5-dimethylisoxazol-4-yl)pyrimidin-5-yl]pyrazolo[1,5-a]pyridin-3-yl]-(1-piperidyl)methanone]",> 1.5
≤ 100 nM,"CN(C)CC(=O)Nc1cncc(-c2cccc3c(C(=O)N4CCCCC4)cnn23)c1 [Example 196, 2-(dimethylamino)-N-(5-(3-(piperidine-1-carbonyl)pyrazolo[1,5-a]pyridin-7-yl)pyridin-3-yl)acetamide]",> 1.5
≤ 100 nM,Cc1nc(-c2ccc(-c3cccc4c(C(=O)N5CCCCC5)cnn34)cc2)cn1C [Example 358],> 1.5
≤ 100 nM,"Cn1nccc1-c1cnc(F)c(-c2cccc3c(C(=O)N4CCCCC4)cnn23)c1 [Example 325, (7-(2-fluoro-5-(1-methyl-1H-pyrazol-5-yl)pyridin-3-yl)pyrazolo[1,5-a]pyridin-3-yl)(piperidin-1-yl)methanone]",> 1.5
